pIC50: −log10 of the molar value. ≈ marks a conversion by molar mass, not a printed value.

The record followed here is ChEMBL document CHEMBL2169841, “A simple solid phase, peptide-based fluorescent assay for the efficient and universal screening of HRV 3C protease inhibitors” (Bioorg Med Chem Lett, 2012).

Parameters in all cases: species or system rhinovirus B14
Assay [1] is described as follows: Inhibition of human rhinovirus 14 recombinant N-terminal GST-tagged protease 3c expressed in Escherichia coli DH5alpha using LEVLFQGPSK(Fluoro)G as substrate after 1 hr by discontinuous heterogeneous fluorometric assay.
The nature of assay [2]: Inhibition of human rhinovirus 14 recombinant N-terminal GST-tagged protease 3c expressed in Escherichia coli DH5alpha using Staphylococcus superantigen like protein 7-thioredoxin fusion protein as substrate after 1 hr by SDS-PAGE analysis.
Assay [3] in a line: Inhibition of human rhinovirus 14 protease 3c by HPLC analysis.

With `CC(O)CC1=C(Br)C(=O)c2ccccc2C1=O` (configuration not stated), in assay [1], the pIC50 (usually the IC50 on a negative log10 scale, so that one unit is a factor of ten) is 4.03.

As for `O=C1C=C(Br)C(=O)c2ccccc21` [2-Bromo-1,4-naphthoquinone], the pIC50 in assay [1] is 5.38. In the case of `C=CCC1=C(Br)C(=O)c2ccccc2C1=O`, the pIC50 in assay [1] is 5.06.

Regarding `CC(=O)CC1=C(Br)C(=O)c2ccccc2C1=O`, in assay [1], the pIC50 is 4.20. In the case of `C[C@H]1CC2=C(C(=O)c3c(O)cc(O)cc3C2=O)[C@H](O)O1`, the IC50 (as a rule, the concentration that inhibits the measured activity by half) worked out at 14.1 µg/mL in assay [2] and 13 µg/mL (≈ 47.1 µM) in assay [3]. Also, in assay [1], the pIC50 was 4.28.
